Assay [1] relates to Staph. haemolyticus.
The subject of assay [2] is Enterococcus faecium. The assay is described as follows: MIC, broth microdilution method (NCCLS M7-A5). The note with it: 568 Enterococcus faecium cl.isol. Format: cell-based. For orientation: Dilution methods test growth across graded concentrations, often in twofold steps.

In brackets after ≈: the same amount, converted by molar mass.

Take `C=C1NC(=O)C(Cc2c[nH]c3ccc(Cl)cc23)NC(=O)C(NC(=O)C(=CC)NC(=O)C(N)C(C)C)CSCC(C(=O)NC2C(=O)N3CCCC3C(=O)NCC(=O)NC(C(=O)NC(C(=O)NC3CSCC4NC(=O)C(CC(N)=O)NC(=O)C(CSCC5NC(=O)C(Cc6ccccc6)NC(=O)C(CS/C=C\NC5=O)NC4=O)NC(=O)CNC(=O)CNC(=O)CNC(=O)C4C(O)C(O)CN4C3=O)C(C)O)CSC2C)NC(=O)C(CC(C)C)NC1=O` (stereo not drawn) [Factor A1]: the MIC in assay [1] is given as 0,25 µg/ml.

With `C=C1NC(=O)C(Cc2c[nH]c3ccc(Cl)cc23)NC(=O)C(NC(=O)C(=CC)NC(=O)C(N)C(C)C)CSCC(C(=O)NC2C(=O)N3CCCC3C(=O)NCC(=O)NC(C(=O)NC(C(=O)NC3CSCC4NC(=O)C(CC(N)=O)NC(=O)C(CSCC5NC(=O)C(Cc6ccccc6)NC(=O)C(CS/C=C\NC5=O)NC4=O)NC(=O)CNC(=O)CNC(=O)CNC(=O)C4CC(O)CN4C3=O)C(C)O)CSC2C)NC(=O)C(CC(C)C)NC1=O` (stereo not drawn) [Factor A2], the MIC in assay [2] was 2 µg/mL (≈ 0.896 µM); in assay [1], 0,25 µg/ml.

For orientation: MIC means the least concentration at which growth counts as inhibited.

The values above are taken from patent publication EP1855705B1, “ANTIBIOTIC 107891, ITS FACTORS, PHARMACEUTICALLY ACCEPTABLE SALTS AND COMPOSITIONS, AND USE THEREOF” (Sentinella Pharmaceuticals, Inc. ("Sentinella"), priority 2005, dated 2006).
